Three compounds from the NIST ThermoML archive (doi:10.1016/j.jct.2012.12.015) can be followed below.

± gives the expanded uncertainty stated by the source.

The conditions of series [1]: Crystal; visual observation.
Series [2] in a line: xn = mol fraction of the nth substance listed. The following applies: 101 kPa, Liquid, Pulse-echo method, x2 = 0.5.

For `[Ag][I]` [silver iodide], the Normal melting temperature in series [1] came to 559 ± 1 °C.

In the case of `[Ag][I]` [silver iodide] + [Cl-].[Na+], the speed of sound in series [2] (1065 K) stood at 1360 ± 8 m/s; in series [2] (1071 K) it was 1357 ± 8 m/s; in series [2] (1075 K) it was 1354 ± 8 m/s. On to `[Cl-].[Na+]` [sodium chloride], for which, in series [1], the Normal melting temperature came out at 801 ± 1 °C.
